15 molecules from PubChem BioAssay (NCI) can be followed below.

Several values for one entry are separate records, joined by “and”; a condition that tells them apart may be missing. Identical values can stand only once.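 How tested: cells in 96-well plates exposed to compound for 48 hours at five concentrations. Abbreviation: GI50, concentration required for 50% inhibition of growth. TGI is the concentration that stops growth completely.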 Where only a bound is given, the exact number is not on record here.

Some test systems named below: HCT-116 colon; HT29 colon; KM12 colon; NCI-H460 lung; PC-3 prostate; SF-268 CNS; SN12C renal; SNB-19 CNS; UO-31 renal; K-562 leukemia.
What all share (assay): NCI-60 cell line screen, 48 h

Turning to `O=C(N/N=C/c1ccc([N+](=O)[O-])o1)c1ccc(O)cc1`, the GI50 in the test on HCT-116 colon was 3.63 µM; with HT29 colon, 5.88 µM; in the test with KM12 colon, 5.43 µM; in the test with NCI-H460 lung, 3.37 µM; in the test with PC-3 prostate, 27 µM; in the test on SF-268 CNS it was 6.73 µM. Besides, the GI50 in the test with SN12C renal is 4.03 µM; in the test with SNB-19 CNS, 5.39 µM; in the test with UO-31 renal, 23.7 µM. For the same molecule, the TGI in the test on HCT-116 colon was 12 µM; in the test with HT29 colon, > 100 µM; in the test on KM12 colon it was > 100 µM; with NCI-H460 lung, > 100 µM; in the test with PC-3 prostate, > 100 µM; in the test on SF-268 CNS it was > 100 µM. Further, the TGI with SN12C renal, in the test with SNB-19 CNS and in the test with UO-31 renal was > 100 µM in each case.

On to `CCN(CC)c1cc2oc3cc(N)cc(=N)c-3nc2cc1C`, for which the GI50 in the test on HCT-116 colon was 1.83 µM; in the test with HT29 colon, 3.49 µM; in the test on KM12 colon it was 3.93 µM; in the test with NCI-H460 lung, 3.41 µM; in the test on PC-3 prostate, 1.73 µM; with SF-268 CNS, 3.26 µM. Further, the GI50 in the test with SN12C renal is 1.94 µM; with SNB-19 CNS it was 5.46 µM; in the test with UO-31 renal, 3.38 µM. Further, the TGI in the test on HCT-116 colon is 5.69 µM; in the test with HT29 colon it was 15.6 µM; in the test with KM12 colon it was 29.8 µM; in the test with NCI-H460 lung, 17 µM; in the test with PC-3 prostate, > 100 µM; in the test with SF-268 CNS, 18.2 µM. The values for the TGI in the test with SN12C renal, in the test on SNB-19 CNS and with UO-31 renal were 6.13 µM, 32 µM and 49 µM, respectively.

`O=C1C(Cl)=C(Nc2ccccc2O)C(=O)N1Cc1ccccc1`: the GI50 in the test with HCT-116 colon was 19.6 µM; in the test on K-562 leukemia, 15.5 µM; in the test with KM12 colon it was 17.8 µM; in the test on NCI-H460 lung, 21 µM; in the test on PC-3 prostate, 18.1 µM; in the test with SF-268 CNS, 20.8 µM. The values for the GI50 in the test on SN12C renal, with SNB-19 CNS and with UO-31 renal were 16.4 µM, 35.8 µM and 15.9 µM, respectively. Further, the TGI in the test on HCT-116 colon stood at 33.7 µM; with K-562 leukemia, 33.6 µM; in the test on KM12 colon, 36.2 µM; with NCI-H460 lung, 42.5 µM; in the test on PC-3 prostate, 39.1 µM; in the test on SF-268 CNS, 52.2 µM. Further, the results for the TGI with SN12C renal, in the test with SNB-19 CNS and with UO-31 renal were 29.9 µM, > 100 µM and 29.3 µM, respectively.

Take `Nc1ccc2[nH]cc(CCC(=O)O)c2c1`: the TGI with HCT-116 colon, with HT29 colon, in the test on KM12 colon, with PC-3 prostate, in the test on SF-268 CNS and with SN12C renal was > 100 µM in each case. The TGI with SNB-19 CNS and with UO-31 renal was > 100 µM throughout.

On to `Cc1ncc([N+](=O)[O-])n1CCNS(=O)(=O)CCCn1ncnc1[N+](=O)[O-]`, for which the TGI with HCT-116 colon, in the test with HT29 colon, with K-562 leukemia, with KM12 colon, in the test with NCI-H460 lung and with PC-3 prostate was > 100 µM in each case. In addition, the TGI with SF-268 CNS, in the test with SN12C renal and with UO-31 renal was > 100 µM throughout.

Turning to `CO/N=C(/C)c1cccc(Nc2cc(-c3ccccc3)nc3ccc(OC)cc23)c1`, the GI50 in the test with HCT-116 colon is 4.25 µM; with HT29 colon it was 34.1 µM; in the test with K-562 leukemia, 2.72 µM; in the test with NCI-H460 lung, 7.07 µM; with PC-3 prostate it was 4.68 µM; in the test on SF-268 CNS, 3.64 µM. In addition, the GI50 with SN12C renal is 2.9 µM; in the test on SNB-19 CNS, 35.2 µM; in the test on UO-31 renal, 15.5 µM. The TGI with HCT-116 colon was 18.4 µM; with HT29 colon, > 100 µM; in the test with K-562 leukemia it was > 100 µM; in the test with NCI-H460 lung, > 100 µM; with PC-3 prostate, 21.6 µM; in the test with SF-268 CNS it was 14.1 µM. Besides, the TGI with SN12C renal was 9.67 µM; with SNB-19 CNS, > 100 µM; in the test on UO-31 renal, > 100 µM.

For the molecule `O=C1CSC(c2ccc(-c3nc4ccccc4s3)cc2)=N1`, the GI50 was 24.7 µM in the test on HCT-116 colon; 16.7 µM in the test with K-562 leukemia; 3.11 µM in the test with KM12 colon; 30.2 µM in the test on NCI-H460 lung; > 100 µM with PC-3 prostate; 36.9 µM with SN12C renal. Further, the GI50 in the test on SNB-19 CNS was 72.7 µM; with UO-31 renal it was 74.8 µM. In addition, the TGI in the test on HCT-116 colon was > 100 µM; with K-562 leukemia it was 50.4 µM; in the test on KM12 colon it was 13.8 µM; with NCI-H460 lung, 74.5 µM; in the test on PC-3 prostate, > 100 µM; in the test with SN12C renal, 99.4 µM. Moreover, the TGI in the test with SNB-19 CNS and in the test on UO-31 renal was > 100 µM throughout.

For `CCC(=O)Nc1ccc(N=NN(C)C)cc1`, the TGI in the test on HCT-116 colon, with HT29 colon, in the test on K-562 leukemia, with NCI-H460 lung, with PC-3 prostate and in the test on SF-268 CNS was > 100 µM throughout. The TGI with SN12C renal, in the test on SNB-19 CNS and in the test on UO-31 renal was > 100 µM in each case.

As to `Clc1ccc(N=CNc2ccc(-c3nc4ccccc4o3)cc2)cc1`, the GI50 with HCT-116 colon is > 100 µM; in the test with K-562 leukemia it was 32.6 µM; in the test with KM12 colon, 15.4 µM; in the test with NCI-H460 lung, 17.1 µM; with PC-3 prostate, 41.7 µM; with SF-268 CNS, 12.7 µM. Besides, the GI50 is 36.7 µM in the test with SN12C renal, 35.8 µM in the test on SNB-19 CNS and 40.6 µM in the test with UO-31 renal. In addition, the TGI with HCT-116 colon was > 100 µM; with K-562 leukemia, > 100 µM; in the test with KM12 colon, 38.7 µM; with NCI-H460 lung, 40.3 µM; in the test on PC-3 prostate, > 100 µM; with SF-268 CNS, 39 µM. Besides, the TGI in the test with SN12C renal, in the test on SNB-19 CNS and with UO-31 renal was > 100 µM each time.

For the molecule `CC(=O)OCCOCNC(=S)N/N=C/c1ccc(Br)s1`, the TGI in the test with HCT-116 colon, with HT29 colon, in the test with K-562 leukemia, in the test with KM12 colon, in the test with NCI-H460 lung and in the test with SF-268 CNS was > 100 µM in each case. In addition, the TGI with SN12C renal, in the test with SNB-19 CNS and in the test with UO-31 renal was > 100 µM in each case.

Consider `C=C1CC[C@@H](C(C)C)C[C@@H]2[C@H]([C@H](O)C[C@]2(C)O)[C@@]2(C)CC[C@@H]1O2`, for which the GI50 in the test on HCT-116 colon is 16.7 µM; in the test with HT29 colon, 11.8 µM; in the test with K-562 leukemia it was 15.8 µM; in the test with KM12 colon, 16.2 µM; with NCI-H460 lung it was 16.4 µM; in the test on SF-268 CNS, 16.5 µM. In addition, the results for the GI50 in the test with SN12C renal, in the test with SNB-19 CNS and in the test on UO-31 renal were 11.2 µM, 19.2 µM and 17.3 µM, respectively. The TGI in the test on HCT-116 colon amounted to 30.3 µM; with HT29 colon, 26.5 µM; in the test on K-562 leukemia, 29.2 µM; in the test on KM12 colon it was 32 µM; with NCI-H460 lung, 29.9 µM; in the test on SF-268 CNS it was 30.1 µM. In addition, the TGI with SN12C renal worked out at 23.3 µM; in the test on SNB-19 CNS, 33.2 µM; in the test with UO-31 renal, 31.1 µM.

With `CC1=C(C(=O)NNS(=O)(=O)c2ccc(C)cc2)CC(C(=O)NNS(=O)(=O)c2ccc(C)cc2)=C(C)N1`, the TGI in the test on HCT-116 colon, with HT29 colon, in the test with K-562 leukemia, in the test on KM12 colon, in the test on NCI-H460 lung and in the test on SF-268 CNS was > 100 µM in each case. The TGI in the test with SN12C renal, with SNB-19 CNS and in the test with UO-31 renal was > 100 µM in each case.

For the molecule `O=c1nc(-c2ccccc2)cc(-c2ccccc2O)[nH]1`, the TGI in the test on HCT-116 colon, in the test with HT29 colon, in the test with K-562 leukemia, in the test with KM12 colon, in the test on NCI-H460 lung and with SF-268 CNS was > 100 µM each time. Also, the TGI in the test with SN12C renal, with SNB-19 CNS and in the test with UO-31 renal was > 100 µM each time.

For `CCOc1ccccc1NC(=O)C(C#N)C1=C(Cl)C(=O)c2ccccc2C1=O` (centres undefined), the TGI with HCT-116 colon was 3.38 µM and 3.93 µM; in the test with KM12 colon, 3.23 µM and 4.59 µM; with NCI-H460 lung it was 3.27 µM and 15.1 µM; in the test with SF-268 CNS, 4.79 µM; in the test with SN12C renal, 3.19 µM and 3.53 µM; with SNB-19 CNS it was 3.6 µM and 10.2 µM. Moreover, in the test on UO-31 renal, the TGI is 3.1 µM and 2.86 µM. The GI50 was 14 µM in the test on HT29 colon; 2.93 µM in the test on K-562 leukemia; 2.13 µM in the test with KM12 colon; 3.45 µM in the test on NCI-H460 lung; 3.07 µM in the test on SNB-19 CNS; 1.51 µM in the test on UO-31 renal.

Consider `CC1C(=O)OC2CC[N+]3([O-])CC=C(COC(=O)C(C)(O)C1(C)O)C23` (centres undefined), for which the TGI in the test with HCT-116 colon, with HT29 colon, in the test on K-562 leukemia, in the test on KM12 colon, with NCI-H460 lung and with PC-3 prostate was > 100 µM in each case. Also, the TGI in the test on SF-268 CNS, in the test on SN12C renal and in the test with SNB-19 CNS was > 100 µM throughout.
